For orientation: Kd means the concentration at which binding is half-saturated. A high value points to weaker binding.

This passage reports Kd results from paper PMC8725163 (Acta Crystallographica. Section D, Structural Biology, 2022).

This test has as its target T1, BpsDsbA (oxidized) (Burkholderia pseudomallei, UniProt Q63Y08).
T1 construct: gene dsbA
Put plainly: biochemical.

T1 sequence (Q63Y08 16-212 limits assumed): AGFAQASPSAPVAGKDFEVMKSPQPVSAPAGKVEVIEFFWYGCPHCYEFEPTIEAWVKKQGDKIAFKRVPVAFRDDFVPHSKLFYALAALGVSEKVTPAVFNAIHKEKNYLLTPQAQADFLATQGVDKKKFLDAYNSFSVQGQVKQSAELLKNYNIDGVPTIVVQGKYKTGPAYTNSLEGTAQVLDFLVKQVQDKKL

`COc1ccc(S(=O)(=O)Nc2ccccc2)cc1` [compound 2, 4-methoxy-N-phenylbenzenesulfonamide] showed a Kd above 2000 µM.
